Measured values reported in PubChem BioAssay (NCI).
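Interpolation was linear, between the two tested concentrations surrounding the appropriate level; five concentrations were tested over 48 hours in 96-well plates. TGI marks complete inhibition of growth.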

Columns and labels:
Assay in all cases: inhibition of tumour cell growth, NCI panel, 48 h
T-47D breast = test system: T-47D breast
SK-MEL-28 melanoma = test system: SK-MEL-28 melanoma
SNB-75 CNS = test system: SNB-75 CNS
HOP-92 NSCLC = test system: HOP-92 NSCLC
CAKI-1 renal = test system: CAKI-1 renal
UACC-257 melanoma = test system: UACC-257 melanoma
COLO 205 colon = test system: COLO 205 colon
MDA-MB-231 breast = test system: MDA-MB-231 breast
SF-539 CNS = test system: SF-539 CNS
DU-145 prostate = test system: DU-145 prostate
U251 CNS = test system: U251 CNS
SK-OV-3 ovarian = test system: SK-OV-3 ovarian
EKVX NSCLC = test system: EKVX NSCLC
KM12 colon = test system: KM12 colon
HL-60(TB) leukemia = test system: HL-60(TB) leukemia
HCT-15 colon = test system: HCT-15 colon
CCRF-CEM leukemia = test system: CCRF-CEM leukemia
NCI-H460 lung = test system: NCI-H460 lung
MALME-3M melanoma = test system: MALME-3M melanoma
OVCAR-5 ovarian = test system: OVCAR-5 ovarian
NCI-H23 lung = test system: NCI-H23 lung
MCF7 breast = test system: MCF7 breast
SF-268 CNS = test system: SF-268 CNS
HCT-116 colon = test system: HCT-116 colon
NCI-H226 lung = test system: NCI-H226 lung
HS 578T breast = test system: HS 578T breast
MDA-MB-435 = test system: MDA-MB-435
BT-549 breast = test system: BT-549 breast
A498 renal = test system: A498 renal
M14 melanoma = test system: M14 melanoma
K-562 leukemia = test system: K-562 leukemia
PC-3 prostate = test system: PC-3 prostate
SNB-19 CNS = test system: SNB-19 CNS
HT29 colon = test system: HT29 colon
OVCAR-4 ovarian = test system: OVCAR-4 ovarian
786-0 renal = test system: 786-0 renal
NCI-H522 lung = test system: NCI-H522 lung
SF-295 CNS = test system: SF-295 CNS
NCI/ADR-RES ovarian = test system: NCI/ADR-RES ovarian
OVCAR-8 ovarian = test system: OVCAR-8 ovarian
OVCAR-3 ovarian = test system: OVCAR-3 ovarian
ACHN renal = test system: ACHN renal
MDA-N = test system: MDA-N
RPMI-8226 leukemia = test system: RPMI-8226 leukemia
HOP-62 NSCLC = test system: HOP-62 NSCLC
SK-MEL-5 melanoma = test system: SK-MEL-5 melanoma
UO-31 renal = test system: UO-31 renal
RXF 393 renal = test system: RXF 393 renal
A549 NSCLC = test system: A549 NSCLC
IGROV1 ovarian = test system: IGROV1 ovarian
SK-MEL-2 melanoma = test system: SK-MEL-2 melanoma
SN12C renal = test system: SN12C renal
HCC-2998 colon = test system: HCC-2998 colon
TK-10 renal = test system: TK-10 renal
UACC-62 melanoma = test system: UACC-62 melanoma
LOX IMVI melanoma = test system: LOX IMVI melanoma
SW-620 colon = test system: SW-620 colon
MOLT-4 leukemia = test system: MOLT-4 leukemia

`COc1cc(C(c2c(O)c3ccccc3oc2=O)c2c(O)c3ccccc3oc2=O)ccc1O` showed a TGI (T-47D breast) of 33.9 µM, a TGI (SK-MEL-28 melanoma) of 36.5 µM and a TGI (SNB-75 CNS) of 66.1 µM. The TGI (HOP-92 NSCLC) was 33.8 µM, the TGI (CAKI-1 renal) was 36.5 µM and the TGI (UACC-257 melanoma) was 37.1 µM. The TGI (COLO 205 colon) was 31.7 µM, the TGI (MDA-MB-231 breast) was 35.9 µM and the TGI (SF-539 CNS) was 53.9 µM. The TGI (DU-145 prostate) was 52.6 µM, the TGI (U251 CNS) was 58.4 µM and the TGI (SK-OV-3 ovarian) was over 100 µM. For the same compound, the TGI (EKVX NSCLC) was 80.9 µM, the TGI (KM12 colon) was 87.1 µM and the TGI (HL-60(TB) leukemia) was 57.9 µM. The TGI (HCT-15 colon) was 36 µM, the TGI (CCRF-CEM leukemia) was 89.6 µM and the TGI (NCI-H460 lung) was 44.6 µM. For the same compound, the TGI (MALME-3M melanoma) was 38 µM, the TGI (OVCAR-5 ovarian) was 41.3 µM and the TGI (NCI-H23 lung) was over 100 µM. For the same compound, the TGI (MCF7 breast) was 38.2 µM, the TGI (SF-268 CNS) was 45.4 µM and the TGI (HCT-116 colon) was over 100 µM. It also gave a TGI (NCI-H226 lung) of over 100 µM, a TGI (HS 578T breast) of over 100 µM and a TGI (MDA-MB-435) of over 100 µM. For the same compound, the TGI (BT-549 breast) was 38.9 µM, the TGI (A498 renal) was over 100 µM and the TGI (M14 melanoma) was 34.7 µM. It also gave a TGI (K-562 leukemia) of over 100 µM, a TGI (PC-3 prostate) of 94.6 µM and a TGI (SNB-19 CNS) of 92 µM. The TGI (HT29 colon) was 40.8 µM, the TGI (OVCAR-4 ovarian) was over 100 µM and the TGI (786-0 renal) was 56 µM. The TGI (NCI-H522 lung) was 43.2 µM, the TGI (SF-295 CNS) was over 100 µM and the TGI (NCI/ADR-RES ovarian) was over 100 µM. It also gave a TGI (OVCAR-8 ovarian) of over 100 µM, a TGI (OVCAR-3 ovarian) of 34.6 µM and a TGI (ACHN renal) of 40.2 µM. For the same compound, the TGI (MDA-N) was 44.8 µM, the TGI (RPMI-8226 leukemia) was over 100 µM and the TGI (HOP-62 NSCLC) was over 100 µM. The TGI (SK-MEL-5 melanoma) was 30.3 µM, the TGI (UO-31 renal) was 65.6 µM and the TGI (RXF 393 renal) was 33.7 µM. It also gave a TGI (A549 NSCLC) of over 100 µM, a TGI (IGROV1 ovarian) of 27.2 µM and a TGI (SK-MEL-2 melanoma) of 58.5 µM. The TGI (SN12C renal) was 42 µM, the TGI (HCC-2998 colon) was 33.9 µM and the TGI (TK-10 renal) was 46.1 µM. It also gave a TGI (UACC-62 melanoma) of 35.4 µM, a TGI (LOX IMVI melanoma) of 65.1 µM and a TGI (SW-620 colon) of 63.1 µM. For the same compound, the TGI (MOLT-4 leukemia) was 62.4 µM.
